Laboratory results published in ChEMBL document CHEMBL1287771, “Novel hybrids of 15-membered 8a- and 9a-azahomoerythromycin A ketolides and quinolones as potent antibacterials” (2010).
In brackets after ≈: the same amount, converted by molar mass.

Key:
Type in all cases: functional
Streptococcus pyogenes [1] = experiment: Antibacterial activity against inducible macrolide-lincosamide-streptogramin B-resistant Streptococcus pyogenes B0543 by agar microdilution method
Streptococcus pyogenes [2] = experiment: Antibacterial activity against erythromycin A-susceptible Streptococcus pyogenes B0542 by agar microdilution method
Staphylococcus aureus [3] = experiment: Antibacterial activity against constitutive macrolide-lincosamide-streptogramin B-resistant Staphylococcus aureus B0330 by agar microdilution method
Haemophilus influenzae = experiment: Antibacterial activity against Haemophilus influenzae B0529 by agar microdilution method
Streptococcus pyogenes [4] = experiment: Antibacterial activity against efflux-resistant Streptococcus pyogenes B0545 by agar microdilution method
Streptococcus pyogenes [5] = experiment: Antibacterial activity against constitutive macrolide-lincosamide-streptogramin B-resistant Streptococcus pyogenes B0544 by agar microdilution method
Moraxella catarrhalis = experiment: Antibacterial activity against Moraxella catarrhalis B0324 by agar microdilution method
Streptococcus pneumoniae [6] = experiment: Antibacterial activity against constitutive macrolide-lincosamide-streptogramin B-resistant Streptococcus pneumoniae B0627 by agar microdilution method
Streptococcus pneumoniae [7] = experiment: Antibacterial activity against efflux-resistant Streptococcus pneumoniae B0326 by agar microdilution method
Staphylococcus aureus [8] = experiment: Antibacterial activity against efflux-resistant Staphylococcus aureus B0331 by agar microdilution method
Staphylococcus aureus [9] = experiment: Antibacterial activity against erythromycin A-susceptible Staphylococcus aureus B0329 by agar microdilution method
Staphylococcus aureus [10] = experiment: Antibacterial activity against inducible macrolide-lincosamide-streptogramin B-resistant Staphylococcus aureus B0538 by agar microdilution method
Streptococcus pneumoniae [11] = experiment: Antibacterial activity against erythromycin A-susceptible Streptococcus pneumoniae B0541 by agar microdilution method

Compound	MIC (Streptococcus pyogenes [1]) [µg/mL]	MIC (Streptococcus pyogenes [2]) [µg/mL]	MIC (Staphylococcus aureus [3]) [µg/mL]	MIC (Haemophilus influenzae) [µg/mL]	MIC (Streptococcus pyogenes [4]) [µg/mL]	MIC (Streptococcus pyogenes [5]) [µg/mL]	MIC (Moraxella catarrhalis) [µg/mL]	MIC (Streptococcus pneumoniae [6]) [µg/mL]	MIC (Streptococcus pneumoniae [7]) [µg/mL]	MIC (Staphylococcus aureus [8]) [µg/mL]	MIC (Staphylococcus aureus [9]) [µg/mL]	MIC (Staphylococcus aureus [10]) [µg/mL]	MIC (Streptococcus pneumoniae [11]) [µg/mL]
CC[C@H]1OC(=O)[C@H](C)C(=O)[C@H](C)[C@@H](O[C@@H]2O[C@H](C)C[C@H](N(C)C)[C@H]2O)[C@](C)(OCC(O)CN2CCN(c3ccc4c(c3F)c(=O)c(C(=O)OC)cn4C3CC3)CC2)C[C@@H](C)NC(=O)[C@H](C)[C@H](O)[C@@]1(C)O (stereo partly specified)	> 64	0.125 (≈ 0.126 µM)	> 64	4 (≈ 4.04 µM)	16 (≈ 16.2 µM)	> 64	0.5 (≈ 0.505 µM)	> 64	0.25 (≈ 0.252 µM)	32 (≈ 32.3 µM)	4 (≈ 4.04 µM)	> 64	0.125 (≈ 0.126 µM)
C=CCO[C@]1(C)C[C@@H](C)NC(=O)[C@H](C)[C@H](O)[C@@](C)(O)[C@@H](CC)OC(=O)[C@H](C)[C@@H](O[C@@H]2C[C@@](C)(OC)[C@@H](O)[C@H](C)O2)[C@H](C)[C@H]1O[C@@H]1O[C@H](C)C[C@H](N(C)C)[C@H]1O	16 (≈ 20.3 µM)	≤ 0.125	> 64	1 (≈ 1.27 µM)	16 (≈ 20.3 µM)	> 64	≤ 0.125	> 64	8 (≈ 10.1 µM)	64 (≈ 81.1 µM)	0.25 (≈ 0.317 µM)	> 64	≤ 0.125
CC[C@H]1OC(=O)[C@H](C)C(=O)[C@H](C)[C@@H](O[C@@H]2O[C@H](C)C[C@H](N(C)C)[C@H]2O)[C@](C)(OCC(O)CNCC(C)C)C[C@@H](C)NC(=O)[C@H](C)[C@H](O)[C@@]1(C)O (stereo partly specified)	64 (≈ 89.1 µM)	8 (≈ 11.1 µM)	> 64	> 64	8 (≈ 11.1 µM)	> 64	16 (≈ 22.3 µM)	> 64	64 (≈ 89.1 µM)	64 (≈ 89.1 µM)	64 (≈ 89.1 µM)	64 (≈ 89.1 µM)	16 (≈ 22.3 µM)
CC[C@H]1OC(=O)[C@H](C)C(=O)[C@H](C)[C@@H](O[C@H]2C[C@H](O)[C@@H](N(C)C)[C@@H](C)O2)[C@](C)(OC/C=C/c2cnc3ccccc3c2)C[C@@H](C)/C(=N\OC(C)=O)[C@H](C)[C@@H](O)[C@]1(C)O	≤ 0.125	0.125 (≈ 0.157 µM)	64 (≈ 80.2 µM)	32 (≈ 40.1 µM)	0.5 (≈ 0.627 µM)	32 (≈ 40.1 µM)	8 (≈ 10 µM)	8 (≈ 10 µM)	≤ 0.125	1 (≈ 1.25 µM)	0.25 (≈ 0.313 µM)	0.5 (≈ 0.627 µM)	≤ 0.125
CC[C@H]1OC(=O)[C@H](C)C(=O)[C@H](C)[C@@H](O[C@@H]2O[C@H](C)C[C@H](N(C)C)[C@H]2O)[C@](C)(OC/C=C/c2cnc3ccccc3c2)C[C@@H](C)NC(=O)[C@H](C)[C@@H]2OC(=O)O[C@]12C	≤ 0.125	≤ 0.125	64 (≈ 81.8 µM)	1 (≈ 1.28 µM)	0.5 (≈ 0.639 µM)	8 (≈ 10.2 µM)	0.25 (≈ 0.32 µM)	4 (≈ 5.12 µM)	≤ 0.125	0.25 (≈ 0.32 µM)	≤ 0.125	0.25 (≈ 0.32 µM)	0.06 (≈ 0.0767 µM)
CC[C@H]1OC(=O)[C@H](C)[C@@H](O[C@H]2C[C@@](C)(OC)[C@@H](O)[C@H](C)O2)[C@H](C)[C@@H](O[C@@H]2O[C@H](C)C[C@H](N(C)C)[C@H]2O)[C@](C)(O)C[C@@H](C)CN(C)[C@H](C)[C@@H](O)[C@]1(C)O [AZITHROMYCIN]	8 (≈ 10.7 µM)	≤ 0.125	> 64	1 (≈ 1.34 µM)	1 (≈ 1.34 µM)	> 64	0.25 (≈ 0.334 µM)	> 64	4 (≈ 5.34 µM)	> 64	1 (≈ 1.34 µM)	> 64	≤ 0.125
CC[C@H]1OC(=O)[C@H](C)C(=O)[C@H](C)[C@@H](O[C@@H]2O[C@H](C)C[C@H](N(C)C)[C@H]2O)[C@](C)(OC/C=C/c2ccnc3ccccc23)C[C@@H](C)NC(=O)[C@H](C)[C@H](O)[C@@]1(C)O	2 (≈ 2.65 µM)	0.25 (≈ 0.331 µM)	> 64	4 (≈ 5.29 µM)	2 (≈ 2.65 µM)	16 (≈ 21.2 µM)	0.5 (≈ 0.661 µM)	> 64	1 (≈ 1.32 µM)	2 (≈ 2.65 µM)	0.5 (≈ 0.661 µM)	1 (≈ 1.32 µM)	≤ 0.125
CC[C@H]1OC(=O)[C@H](C)C(=O)[C@H](C)[C@@H](O[C@@H]2O[C@H](C)C[C@H](N(C)C)[C@H]2O)[C@](C)(OCC(O)CNCCNc2ccc3c(c2F)c(=O)c(C(=O)O)cn3C2CC2)C[C@@H](C)NC(=O)[C@H](C)[C@H](O)[C@@]1(C)O (stereo partly specified)	1 (≈ 1.05 µM)	≤ 0.125	> 64	2 (≈ 2.11 µM)	16 (≈ 16.8 µM)	8 (≈ 8.42 µM)	2 (≈ 2.11 µM)	2 (≈ 2.11 µM)	2 (≈ 2.11 µM)	4 (≈ 4.21 µM)	1 (≈ 1.05 µM)	1 (≈ 1.05 µM)	≤ 0.125
CC[C@H]1OC(=O)[C@H](C)C(=O)[C@H](C)[C@@H](O[C@@H]2O[C@H](C)C[C@H](N(C)C)[C@H]2O)[C@](C)(OCC(O)CNc2ccc3ncccc3c2)C[C@@H](C)NC(=O)[C@H](C)[C@H](O)[C@@]1(C)O (stereo partly specified)	4 (≈ 5.07 µM)	≤ 0.125	64 (≈ 81.1 µM)	≤ 0.125	8 (≈ 10.1 µM)	16 (≈ 20.3 µM)	0.5 (≈ 0.634 µM)	8 (≈ 10.1 µM)	2 (≈ 2.53 µM)	1 (≈ 1.27 µM)	2 (≈ 2.53 µM)	2 (≈ 2.53 µM)	≤ 0.125
CC[C@H]1OC(=O)[C@H](C)C(=O)[C@H](C)[C@@H](O[C@@H]2O[C@H](C)C[C@H](N(C)C)[C@H]2O)[C@](C)(OCC(O)CN2CCN(c3cc4c(=O)c(C(=O)O)cn(C5CC5)c4cc3Cl)CC2)C[C@@H](C)NC(=O)[C@H](C)[C@H](O)[C@@]1(C)O (stereo partly specified)	1 (≈ 1.01 µM)	≤ 0.125	> 64	1 (≈ 1.01 µM)	0.5 (≈ 0.504 µM)	4 (≈ 4.03 µM)	≤ 0.125	1 (≈ 1.01 µM)	0.25 (≈ 0.252 µM)	0.25 (≈ 0.252 µM)	1 (≈ 1.01 µM)	1 (≈ 1.01 µM)	≤ 0.125
C=CCO[C@]1(C)C[C@@H](C)C(=O)N[C@H](C)[C@H](O)[C@@](C)(O)[C@@H](CC)OC(=O)[C@H](C)[C@@H](O[C@@H]2C[C@@](C)(OC)[C@@H](O)[C@H](C)O2)[C@H](C)[C@H]1O[C@@H]1O[C@H](C)C[C@H](N(C)C)[C@H]1O	4 (≈ 5.07 µM)	≤ 0.125	> 64	64 (≈ 81.1 µM)	> 64	> 64	4 (≈ 5.07 µM)	> 64	> 64	> 64	> 64	> 64	> 64
CC[C@H]1OC(=O)[C@H](C)C(=O)[C@H](C)[C@@H](O[C@@H]2O[C@H](C)C[C@H](N(C)C)[C@H]2O)[C@](C)(OC/C=C/c2cnc3ccccc3c2)C[C@@H](C)NC(=O)[C@H](C)[C@H](O)[C@@]1(C)O	1 (≈ 1.32 µM)	≤ 0.125	> 64	4 (≈ 5.29 µM)	1 (≈ 1.32 µM)	8 (≈ 10.6 µM)	0.25 (≈ 0.331 µM)	16 (≈ 21.2 µM)	0.5 (≈ 0.661 µM)	0.5 (≈ 0.661 µM)	1 (≈ 1.32 µM)	0.5 (≈ 0.661 µM)	≤ 0.125
